# Biological target: T1, FXR (Homo sapiens, UniProt Q96RI1)
# T1 construct: 5 μL of 20 nM FXR-LBD Complete Coregulator buffer G; purchased ThermoFisher PV4833
# T1 sequence (Q96RI1 262-486 limits assumed): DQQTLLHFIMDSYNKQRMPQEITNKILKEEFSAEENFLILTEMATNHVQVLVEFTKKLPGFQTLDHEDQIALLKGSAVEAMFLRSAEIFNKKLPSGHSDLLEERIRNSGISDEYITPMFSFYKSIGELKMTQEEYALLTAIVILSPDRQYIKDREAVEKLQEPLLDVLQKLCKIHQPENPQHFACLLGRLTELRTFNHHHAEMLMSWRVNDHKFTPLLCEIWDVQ
# Assay: FXR antagonist screening by TR-FRET (LanthaScreen TR-FRET FXR co-activation assay kit)
# Format: biochemical
# Conditions: Table 1.2, FXR antagonistic activity; TR-FRET with CDCA; geometric means of at least two independent runs
# Method: FXR activity was evaluated by time-resolved fluorescence resonance energy transfer (TR-FRET) assay, using LanthaScreen™ TR-FRET FXR co-activation assay kit (ThermoFisher, Cat. PV4833). For agonist screening, 10 μL of Complete Coregulator buffer G containing the corresponding concentration of the compound to be tested, 5 μL of 20 nM FXR-LBD Complete Coregulator buffer G, and 5 μL of 2.0 μM Fluorescein-SRC2-2/20 nM Tb-anti-GST antibody Complete Coregulator buffer G were added to each well of a 384-well black plate (Coring) in sequence. […] Three duplicate wells were set up for each compound, with CDCA as the positive compound and DMSO as the solvent control. For antagonist screening, 5 μL of Complete Coregulator buffer G containing the corresponding concentration of the compound to be tested, 5 μL of 20 nM FXR-LBD Complete Coregulator buffer G, 5 μL of 200 μM CDCA FXR-LBD Complete Coregulator buffer G, and 5 μL of 2.0 μM Fluorescein-SRC2-2/20 nM Tb-anti-GST antibody Complete Coregulator buffer G were added to each well of a 384-well black plate (Coring) in sequence and incubated at room temperature for 10 h. Following operations were the same as those for agonist screening
row,Structure (SMILES),IC50 [µM]
1,"CCC(CC)C(=O)N1CCN(c2ccccc2N(CCc2ccccc2)S(=O)(=O)c2ccc3oc(C(=O)O)c(C)c3c2)CC1 [Example F27-S145, 5-(N-(2-(4-(2-ethylbutyryl)piperazin-1-yl)phenyl)-N-phenethylsulfamoyl)3-methylbenzofuran-2-carboxylic acid]",0.1 to 10
2,"Cc1c(C(=O)O)oc2ccc(S(=O)(=O)N(CCc3ccccc3)c3ccccc3N3CCN(C(=O)c4ccno4)CC3)cc12 [Example F27-S146, 5-(N-(2-(4-(isoxazole-5-carbonyl)piperazin-1-yl)phenyl)-N-phenethylsulfamoyl)3-methylbenzofuran-2-carboxylic acid]",0.1 to 10
3,"Cc1c(C(=O)O)oc2ccc(S(=O)(=O)N(CCc3ccccc3)c3ccccc3N3CCC(NC(=O)c4sccc4Br)CC3)cc12 [Example F27-S147, 5-(N-(2-(4-(3-bromothiophene-2-carboxamido)piperidin-1-yl)phenyl)-N-phenethylsulfamoyl)-3-methylbenzofuran-2-carboxylic acid]",0.1 to 10
4,Cc1c(C(=O)O)oc2ccc(S(=O)(=O)N(CCc3ccccc3)c3ccccc3N3CCC4(CCN(C(=O)c5sccc5Br)C4)CC3)cc12 [Example F27-S148],0.1 to 10
5,"Cc1c(C(=O)O)oc2ccc(S(=O)(=O)N(CCc3ccccc3)c3ccccc3N3CC4(CCN(C(=O)c5sccc5Br)CC4)C3)cc12 [Example F27-S149, 5-(N-(2-(7-(3-bromothiophene-2-carbonyl)-2,7-diazaspiro[3.5]nonan-2-yl)phenyl)-N-phenethylsulfamoyl)-3-methylbenzofuran-2-carboxylic acid]",0.1 to 10
6,Cc1c(C(=O)O)oc2ccc(S(=O)(=O)N(CCc3ccccc3)c3ccccc3N3CCC4(CC3)CN(C(=O)c3sccc3Br)C4)cc12 [Example F27-S150],0.1 to 10
7,"Cc1c(C(=O)O)oc2ccc(S(=O)(=O)N(CCc3ccccc3)c3ccccc3N3CC4CC(C3)N4C(=O)c3sccc3Br)cc12 [Example F27-S151, 5-(N-(2-(6-(3-bromothiophene-2-carbonyl)-3,6-diazabicyclo[3.1.1]heptan-3-yl)phenyl)-N-phenethylsulfamoyl)-3-methylbenzofuran-2-carboxylic acid]",0.1 to 10
8,"Cc1c(C(=O)O)oc2ccc(S(=O)(=O)N(CCc3ccccc3)c3ccccc3N3CCN(C(=O)c4sccc4Br)C[C@@H]3C)cc12 [Example F27-S152, (S)-5-(N-(2-(4-(3-bromothiophene-2-carbonyl)-2-methylpiperazin-1-yl)phenyl)-N-phenethylsulfamoyl)-3-methylbenzofuran-2-carboxylic acid]",0.1 to 10
9,"Cc1c(C(=O)O)oc2ccc(S(=O)(=O)N(CCc3ccccc3)c3ccccc3N3CCN(C(=O)c4sccc4Br)C[C@H]3C)cc12 [Example F27-S153, (R)-5-(N-(2-(4-(3-bromothiophene-2-carbonyl)-2-methylpiperazin-1-yl)phenyl)-N-phenethylsulfamoyl)-3-methylbenzofuran-2-carboxylic acid]",0.1 to 10
10,"Cc1c(C(=O)O)oc2ccc(S(=O)(=O)N(CCc3ccccc3)c3ccccc3N3CCCN(C(=O)c4sccc4Br)CC3)cc12 [Example F27-S154, 5-(N-(2-(4-(3-bromothiophene-2-formyl)-1,4-diazepin-1-yl)phenyl)-N-phenethylsulfamoyl)3-methylbenzofuran-2-carboxylic acid]",0.1 to 10
11,"Cc1c(C(=O)O)oc2ccc(S(=O)(=O)N(CCc3ccccc3)c3ccccc3N3C4CCC3CN(C(=O)c3sccc3Br)C4)cc12 [Example F27-S155, 5-(N-(2-(3-(3-bromothiophene-2-formyl)-3,8-diazepine[3.2.1]cyclooctan-8-yl)phenyl)-N-phenethylsulfamoyl)3-methylbenzofuran-2-carboxylic acid]",0.1 to 10
12,"Cc1c(C(=O)O)oc2ccc(S(=O)(=O)N(CCc3ccccc3)c3ccccc3N3CCN(C(=O)c4sccc4Br)C(C)C3)cc12 (centres unmarked) [Example F27-S156, 5-(N-(2-(4-(3-bromothiophene-2-formyl)-3-methylpiperazin-1-yl)phenyl)-N-phenethylsulfamoyl)3-methylbenzofuran-2-carboxylic acid]",0.1 to 10
13,"Cc1c(C(=O)O)oc2ccc(S(=O)(=O)N(CCc3ccccc3)c3ccccc3N3CC4CC3CN4C(=O)c3sccc3Br)cc12 (centres unmarked) [Example F27-S157, 5-(N-(2-(5-(3-bromothiophene-2-formyl)-2,5-diazabicyclo[2.2.1]hept-2-yl)phenyl)-N-phenethylsulfamoyl)3-methylbenzofuran-2-carboxylic acid]",0.1 to 10
14,"Cc1c(C(=O)O)sc2ccc(S(=O)(=O)N(CCc3ccccc3)c3ccccc3N3CCN(C(=O)c4sccc4Br)CC3)cc12 [Example F27-S158, 5-(N-(2-(4-(3-bromothiophene-2-carbonyl)piperazin-1-yl)phenyl)-N-phenethylsulfamoyl)-3-toluothiophene-2-carboxylic acid]",0.1 to 10
15,"O=C(O)c1cc2cc(S(=O)(=O)N(CCc3ccccc3)c3ccccc3N3CCN(C(=O)c4sccc4Br)CC3)ccc2s1 [Example F27-S159, 5-(N-(2-(4-(3-bromothiophene-2-carbonyl)piperazin-1-yl)phenyl)-N-phenethylsulfamoyl)benzo[b]thiophene-2-carboxylic acid]",0.1 to 10
16,"O=C(O)c1cc2ccc(S(=O)(=O)N(CCc3ccccc3)c3ccccc3N3CCN(C(=O)c4sccc4Br)CC3)cc2s1 [Example F27-S160, 6-(N-(2-(4-(3-bromothiophene-2-carbonyl)piperazin-1-yl)phenyl)-N-phenethylsulfamoyl)benzo[b]thiophene-2-carboxylic acid]",0.1 to 10
17,"O=C(O)c1[nH]c2ccc(S(=O)(=O)N(CCc3ccccc3)c3ccccc3N3CCN(C(=O)c4sccc4Br)CC3)cc2c1Cl [Example F27-S161, 5-(N-(2-(4-(3-bromothiophene-2-carbonyl)piperazin-1-yl)phenyl)-N-phenethylsulfamoyl)-3-chloro-1H-indole-2-carboxylic acid]",0.1 to 10
18,"O=C(O)c1cc2cc(S(=O)(=O)N(CCc3ccccc3)c3ccccc3N3CCN(C(=O)c4sccc4Br)CC3)ccc2o1 [Example F27-S162, 5-(N-(2-(4-(3-bromothiophene-2-formyl)piperazin-1-yl)phenyl)-N-phenethylsulfamoyl)benzofuran-2-carboxylic acid]",0.1 to 10
19,"Cc1c(C(=O)O)oc2cc(S(=O)(=O)N(CCc3ccccc3)c3ccccc3N3CCN(C(=O)c4sccc4Br)CC3)ccc12 [Example F27-S163, 6-(N-(2-(4-(3-bromothiophene-2-formyl)piperazin-1-yl)phenyl)-N-phenethylsulfamoyl)3-methylbenzofuran-2-carboxylic acid]",0.1 to 10
20,"O=C(O)c1cc2ccc(S(=O)(=O)N(CCc3ccccc3)c3ccccc3N3CCN(C(=O)c4sccc4Br)CC3)cc2o1 [Example F27-S164, 6-(N-(2-(4-(3-bromothiophene-2-formyl)piperazin-1-yl)phenyl)-N-phenethylsulfamoyl)benzofuran-2-carboxylic acid]",0.1 to 10
21,"COc1ccc(CCN(c2ccccc2N2CCN(C(=O)c3sccc3Br)CC2)S(=O)(=O)c2ccc3sc(C(=O)O)c(C)c3c2)cc1 [Example F27-S165, 5-(N-(2-(4-(3-bromothiophene-2-formyl)piperazin-1-yl)phenyl)-N-(4-methoxyphenethyl)sulfamoyl)3-methylbenzothiophene-2-carboxylic acid]",0.1 to 10
22,"Cc1c(C(=O)O)sc2ccc(S(=O)(=O)N(CCc3ccc(Cl)cc3)c3ccccc3N3CCN(C(=O)c4sccc4Br)CC3)cc12 [Example F27-S166, 5-(N-(2-(4-(3-bromothiophene-2-carbonyl)piperazin-1-yl)phenyl)-N-(4-chlorophenylethyl)sulfamoyl)-3-methylbenzothiophene-2-carboxylic]",0.1 to 10
23,"Cc1ccc(CCN(c2ccccc2N2CCN(C(=O)c3sccc3Br)CC2)S(=O)(=O)c2ccc3sc(C(=O)O)c(C)c3c2)cc1 [Example F27-S167, 5-(N-(2-(4-(3-bromothiophene-2-carbonyl)piperazin-1-yl)phenyl)-N-(4-methylphenylethyl)sulfamoyl)-3-methylbenzothiophene-2-carboxylic acid]",0.1 to 10
24,"Cc1c(C(=O)O)sc2ccc(S(=O)(=O)N(CCc3ccc(C(=O)O)cc3)c3ccccc3N3CCN(C(=O)c4sccc4Br)CC3)cc12 [Example F27-S168, 5-(N-(2-(4-(3-bromothiophene-2-carbonyl)piperazin-1-yl)phenyl)-N-(4-carboxyphenethyl)sulfamoyl)-3-toluenothiophene-2-carboxylic acid]",0.1 to 10
25,Cc1c(C(=O)O)sc2ccc(S(=O)(=O)N(CCc3ccc(C#N)cc3)c3ccccc3N3CCN(C(=O)c4sccc4Br)CC3)cc12 [Example F27-S169],0.1 to 10
26,"Cc1c(C(=O)O)sc2ccc(S(=O)(=O)N(CCc3ccc(C(F)(F)F)cc3)c3ccccc3N3CCN(C(=O)c4sccc4Br)CC3)cc12 [Example F27-S170, 5-(N-(2-(4-(3-bromothiophene-2-carbonyl)piperazin-1-yl)phenyl)-N-(4-(trifluoromethyl)phenethyl)sulfamoyl)-3-methylbenzothiophene-2-carboxylic acid]",0.1 to 10
